Like-named read-outs stand apart in the source and are kept apart here. Marks after values point to notes of the source that are not given here.
Assays:
[1] = Measurement of log P values by HPLC on reversed phase columns (EEC directive 79/831 Annex V.A8); details: for chromatographic logP: pH 2.7; for LogP: Table 1, compounds of formula (I), method [a]: LC-MS at pH 2.7, 0.1% formic acid in water / acetonitrile gradient
[2] = test system: Pyrenophora teres; experiment: In vivo preventive test on Pyrenophora teres (net blotch on barley); details: barley plants, preventive spray, 500 ppm of active ingredient, evaluated 14 days after inoculation
Procedure: (§1) The tested active ingredients are prepared by homogenization in a mixture of acetone/Dimethyl sulfoxide/Tween®, and then diluted with water to obtain the desired active material concentration.
The young plants of barley are treated by spraying the active ingredient prepared as described above. Control plants are treated only with an aqueous solution of acetone/Dimethyl sulfoxide/Tween®.
After 24 hours, the plants are contaminated by spraying the leaves with an aqueous suspension of Pyrenophora teres spores. The contaminated barley plants are incubated for 48 hours at 20° C. and at 100% relative humidity and then for 12 days at 20° C. and at 70-80% relative humidity.
The test is evaluated 14 days after the inoculation. 0% means an efficacy which corresponds to that of the control plants while an efficacy of 100% means that no disease is observed.

[3] = test system: Alternaria brassicae; experiment: In vivo preventive test on Alternaria brassicae (leaf spot on radish); details: radish plants, preventive spray, 500 ppm of active ingredient, evaluated 6 days after inoculation
Procedure: as §1
The young plants of radish are treated by spraying the active ingredient prepared as described above. Control plants are treated only with an aqueous solution of acetone/Dimethyl sulfoxide/Tween®.
After 24 hours, the plants are contaminated by spraying the leaves with an aqueous suspension of Alternaria brassicae spores. The contaminated radish plants are incubated for 6 days at 20° C. and at 100% relative humidity.
The test is evaluated 6 days after the inoculation. 0% means an efficacy which corresponds to that of the control plants while an efficacy of 100% means that no disease is observed.

[4] = test system: Phytophthora infestans; type: in vivo; details: tomato plants, preventive spray, 500 ppm of active ingredient, evaluated 5 days after inoculation
[5] = pH 2.7
[6] = test system: Septoria tritici; experiment: In vivo preventive test on Septoria tritici (leaf spot on wheat); details: wheat plants, preventive spray, 500 ppm of active ingredient, evaluated 24 days after inoculation
Procedure: as §1
(§2) The young plants of wheat are treated by spraying the active ingredient prepared as described above. Control plants are treated only with an aqueous solution of acetone/Dimethyl sulfoxide/Tween®.
After 24 hours, the plants are contaminated by spraying the leaves with an aqueous suspension of Septoria tritici spores. The contaminated wheat plants are incubated for 72 hours at 18° C. and at 100% relative humidity and then for 21 days at 20° C. and at 90% relative humidity.
The test is evaluated 24 days after the inoculation. 0% means an efficacy which corresponds to that of the control plants while an efficacy of 100% means that no disease is observed.

[7] = test system: Plasmopara viticola; experiment: Plasmopara test (grapevines) / preventive; type: in vivo; details: grapevine plants, preventive spray, 10 ppm of active ingredient, evaluated 6 days after inoculation
Procedure: Solvent: 24.5 parts by weight of acetone • 24.5 parts by weight of dimethylacetamide
Emulsifier: 1 part by weight of alkylaryl polyglycol ether
To produce a suitable preparation of active compound, 1 part by weight of active compound is mixed with the stated amounts of solvent and emulsifier, and the concentrate is diluted with water to the desired concentration.
To test for preventive activity, young plants are sprayed with the preparation of active compound at the stated rate of application. After the spray coating has dried on, the plants are inoculated with an aqueous spore suspension of Plasmopara viticola and then remain for 1 day in an incubation cabinet at approximately 20° C. and a relative atmospheric humidity of 100%. The plant is subsequently placed for 4 days in a greenhouse at approximately 21° C. and a relative atmospheric humidity of approximately 90%. The plants are then misted and placed for 1 day in an incubation cabinet.
The test is evaluated 6 days after the inoculation. 0% means an efficacy which corresponds to that of the untreated control, while an efficacy of 100% means that no disease is observed.

[8] = test system: Pyricularia oryzae; type: in vivo; details: rice plants, preventive spray, 500 ppm of active ingredient, evaluated 6 days after inoculation
[9] = test system: Uromyces appendiculatus; experiment: In vivo preventive test on Uromyces appendiculatus (bean rust); details: bean plants, preventive spray, 500 ppm of active ingredient, evaluated 11 days after inoculation
Procedure: as §1
The young plants of bean are treated by spraying the active ingredient prepared as described above. Control plants are treated only with an aqueous solution of acetone/Dimethyl sulfoxide/Tween®.
After 24 hours, the plants are contaminated by spraying the leaves with an aqueous suspension of Uromyces appendiculatus spores. The contaminated bean plants are incubated for 24 hours at 20° C. and at 100% relative humidity and then for 10 days at 20° C. and at 70-80% relative humidity.
(§3) The test is evaluated 11 days after the inoculation. 0% means an efficacy which corresponds to that of the control plants while an efficacy of 100% means that no disease is observed.

[10] = test system: Puccinia recondita; experiment: In vivo preventive test on Puccinia recondita (brown rust on wheat); details: wheat plants, preventive spray, 500 ppm of active ingredient, evaluated 11 days after inoculation
Procedure: as §1, §2
After 24 hours, the plants are contaminated by spraying the leaves with an aqueous suspension of Puccinia recondita spores. The contaminated wheat plants are incubated for 24 hours at 20° C. and at 100% relative humidity and then for 10 days at 20° C. and at 70-80% relative humidity.
as §3

SMILES	chromatographic logP [1]	% efficacy [4]	LogP [5]	further results
Cn1oc(=O)nc1/C(=N\OCc1cccc(N)n1)c1ccccn1 [Example 9, 3-[(Z)-{[(6-aminopyridin-2-yl)methoxy]imino}(pyridine-2-yl)methyl]-2-methyl-1,2,4-oxadiazol-5(2H)-one]	0.41	–	–	–
Cn1c(C(=NOCc2cccc(NC(=O)OC(C)(C)C)n2)c2ccccn2)noc1=O [Example 13]	–	98%	3.17^[a]	% efficacy [2]: 77%; % efficacy [3]: 91%; % efficacy [6]: 75%
Cn1c(C(=NOCc2csc(NC(=O)OC(C)(C)C)n2)c2ccsc2)noc1=O [Example 16]	–	100%	3.39^[a]	% efficacy [7]: 99%
C#CCCOC(=O)Nc1cccc(CO/N=C(/c2ccccn2)c2nc(=O)on2C)n1 [Example 17, But-3-yn-1-yl {6-[({[(Z)-(2-methyl-5-oxo-2,5-dihydro-1,2,4-oxadiazol-3-yl)(pyridine-2-yl)methylene]amino}oxy)methyl]pyridin-2-yl}carbamate]	2.1	–	–	–
C#CCCOC(=O)Nc1cccc(CON=C(c2ccccn2)c2nc(=O)on2CC)n1 [Example 19]	–	–	–	LogP [1]: 2.35^[a]
Cn1oc(=O)nc1/C(=N\OCc1cccc(NC(=O)OC(C)(C)C)n1)c1ccccn1 [Example 22, tert-butyl {6-[({[(Z)-(2-methyl-5-oxo-2,5-dihydro-1,2,4-oxadiazol-3-yl)(pyridine-2-yl)methylene]amino}oxy)methyl]pyridin-2-yl}carbamate]	2.68	99%	–	% efficacy [8]: 75%; % efficacy [9]: 100%; % efficacy [10]: 88%
Cn1c(C(=NOCc2csc(N)n2)c2ccsc2)noc1=O [Example 23]	–	98%	–	LogP [1]: 1.35^[a]
CC(C)(C)OC(=O)Nc1cccc(CON=C(c2cccnc2)c2noc(=O)[nH]2)n1 [Example 32, tert-butyl {6-[({[(5-oxo-4,5-dihydro-1,2,4-oxadiazol-3-yl)(pyridin-3-yl)methylene]amino}oxy)methyl]pyridin-2-yl}carbamate]	2.59	–	–	–
Cn1c(C(=NOCc2cccc(NC(=O)OC(C)(C)C)n2)c2cccnc2)noc1=O [Example 33, tert-butyl {6-[({[(4-methyl-5-oxo-4,5-dihydro-1,2,4-oxadiazol-3-yl)(pyridin-3-yl)methylene]amino}oxy)methyl]pyridin-2-yl}carbamate]	2.75	78%	–	–
CCCCCOC(=O)Nc1cccc(CON=C(c2ccncc2)c2noc(=O)n2C)n1 [Example 44]	–	98%	–	LogP [1]: 3.29^[a]
C#CCCOC(=O)Nc1cccc(CON=C(c2ccncc2)c2noc(=O)n2C)n1 [Example 45]	–	100%	2.21^[a]	% efficacy [7]: 91%
C#CCCOC(=O)Nc1cccc(CON=C(c2cccnc2)c2nc(=O)on2C)n1 [Example 56]	–	89%	1.88^[a]	–
CCCCOC(=O)Nc1cccc(CON=C(c2cccnc2)c2nc(=O)on2C)n1 [Example 57]	–	95%	2.47^[a]	–
CCCCC(=O)Nc1cccc(CON=C(c2cccnc2)c2noc(=O)n2C)n1 [Example 59]	–	78%	2.51^[a]	–
CCCCCC(=O)Nc1cccc(CON=C(c2ncccn2)c2noc(=O)n2C)n1 [Example 60]	–	90%	2.61^[a]	–
CCCCCC(=O)Nc1cccc(CON=C(c2cccnc2)c2nc(=O)on2C)n1 [Example 63]	–	75%	2.39^[a]	–
Cn1c(C(=NOCc2csc(NC(=O)COc3ccccc3)n2)c2ccsc2)noc1=O [Example 67]	–	98%	3.22^[a]	–
Cn1c(C(=NOCc2csc(NC(=O)C3CCc4ccccc4O3)n2)c2ccsc2)noc1=O (stereo not drawn) [Example 69]	–	75%	3.62^[a]	% efficacy [7]: 92%
CCCC(C)C(=O)Nc1nc(CON=C(c2ccsc2)c2noc(=O)n2C)cs1 (stereo not drawn) [Example 71]	–	100%	3.39^[a]	–
CCCCCC(=O)Nc1nc(CON=C(c2ccsc2)c2noc(=O)n2C)cs1 [Example 73]	–	100%	3.43^[a]	–
CCCCCOC(=O)Nc1nc(CON=C(c2cccs2)c2noc(=O)n2C)cs1 [Example 74]	–	85%	3.79^[a]	–
CC(Oc1ccccc1)C(=O)Nc1nc(CON=C(c2cccs2)c2noc(=O)n2C)cs1 (stereo not drawn) [Example 80]	–	100%	3.42^[a]	% efficacy [7]: 100%
CCCCOC(=O)Nc1cccc(CON=C(c2ccncc2)c2noc(=O)n2C)n1 [Example 82]	–	100%	2.80^[a]	–
CCCCC(=O)Nc1cccc(CON=C(c2ccncc2)c2noc(=O)n2C)n1 [Example 83]	–	100%	2.34^[a]	–
CCCCCC(=O)Nc1cccc(CON=C(c2ccncc2)c2noc(=O)n2C)n1 [Example 84]	–	100%	2.71^[a]	–
CC(C)(C)OC(=O)Nc1cccc(CO/N=C(\C#N)c2ccccn2)n1 [Example IV-02, tert-butyl {6-[({[(Z)-cyano(pyridin-2-yl)methylene]amino}oxy)methyl]pyridin-2-yl}carbamate]	3.5	–	–	–
CC(C)(C)OC(=O)Nc1cccc(CON=C(C#N)c2cccnc2)n1 [Example IV-07, tert-butyl {6-[({[cyano(pyridin-3-yl)methylene]amino}oxy)methyl]pyridin-2-yl}carbamate]	3.19	–	–	–
CC(C)(C)OC(=O)Nc1cccc(CON=C(C(N)=NO)c2cccnc2)n1 [Example V-03, tert-butyl {6-[({[2-amino-2-(hydroxyimino)-1-(pyridin-3-yl)ethylidene]amino}oxy)methyl]pyridin-2-yl}carbamate]	1.81	–	–	–
CN(O)C(=N)/C(=N\OCc1cccc(NC(=O)OC(C)(C)C)n1)c1ccccn1 [Example VI-01, tert-butyl (6-{[({(1Z)-2-[hydroxy(methyl)amino]-2-imino-1-(pyridin-2-yl)ethylidene}amino)oxy]methyl}pyridin-2-yl)carbamate]	1.54	–	–	–
